# According to patent publication US20240158404A1, “MODULATORS OF ALPHA-1 ANTITRYPSIN” (Vertex Pharmaceuticals Incorporated, priority 2022, published 2024):
# Key:
# [1] = Exposure multiple in rat 5-day toxicology studies; format: in vivo; design: key to Exposure Multiple: ratio of tox-species AUC to target efficacious AUCss; conditions: for EM Score: based on the maximum exposure multiple achieved in the rat 5-day toxicology study; for Exposure Multiple: rat 5-day toxicology study, vs predicted human efficacious exposure
# From the text: “Exposure multiple” as used herein, refers to an assessment of relative compound exposure in toxicology studies. The calculation of an exposure multiple is accomplished by comparing the exposure (AUC) achieved in a toxicology species relative to the target efficacious exposure at steady state (AUCss). The larger exposure multiple provides the opportunity to explore higher doses relative to efficacious concentration in clinical development. However, the exposure that results in an adverse toxicological outcome is unpredictable.
# The calculation of an exposure multiple is accomplished by comparing the plasma exposure (AUC) achieved in a toxicology species relative to the target efficacious exposure at steady state (AUCss). […] In addition, this exposure multiple can allow for further exploration of the desired pharmacology due to the opportunity for a larger window established in toxicology studies. However, the exposure that results in a toxicological outcome in preclinical toxicology studies is unpredictable.
# Human exposure multiple (EM) values shown relate to the fold increase in exposure achieved in rat 5-day toxicology studies for a given dose relative to the predicted efficacious exposure anticipated in human (based on cellular NL20 EC50 in vitro efficacy). The exposure multiple score is based on the maximum exposure multiple achieved in the given study. This allows relative comparison across compounds when also considering the administered dose. […] In the tables below, the following meanings apply for exposure multiple scores: “−” means <1; “+” means 1-10; “++” means 10-20; “+++” means 20-30; “++++” means 30-50; and “+++++” means >50.
# [2] = biological target: T1, AAT (Homo sapiens, UniProt P01009, E366K); assay: Compound Quality score (potency in AAT functional assay multiplied by unbound clearance); conditions: compound potency (EC50) x unbound clearance; class symbols
# T1 construct: expressed in transfected cells; host or cells: NL20 human bronchial epithelial cells (NL20-SI cell line), with doxycycline added alongside the compounds
# T1 sequence (P01009 25-418 E366K): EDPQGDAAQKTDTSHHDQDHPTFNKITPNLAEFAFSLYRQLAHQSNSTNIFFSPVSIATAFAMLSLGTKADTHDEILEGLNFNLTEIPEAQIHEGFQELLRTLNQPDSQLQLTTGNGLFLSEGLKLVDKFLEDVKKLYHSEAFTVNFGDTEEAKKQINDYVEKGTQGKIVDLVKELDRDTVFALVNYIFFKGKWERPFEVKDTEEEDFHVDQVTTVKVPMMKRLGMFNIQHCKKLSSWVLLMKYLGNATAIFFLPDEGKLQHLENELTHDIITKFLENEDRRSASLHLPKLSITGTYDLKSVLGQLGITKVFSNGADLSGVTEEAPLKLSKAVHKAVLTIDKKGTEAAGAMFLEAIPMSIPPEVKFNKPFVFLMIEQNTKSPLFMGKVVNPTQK
# From the text: As used herein, the term “Compound Quality” refers to the potency of a compound multiplied (x) by the compound's unbound clearance as measured using the assays described in Example 6.
# The terms “unbound clearance” refer to unbound intrinsic clearance (unbound CLint) in hepatocytes—the intrinsic clearance a drug would have in the absence of protein binding. Unbound CLint=CLint,hep/fu,hep, where CLint,hep is intrinsic clearance in hepatocytes and fu,hep is unbound fraction in hepatocytes.
# A key consideration for the selection of compounds suitable for clinical development is the projection of human dose as described in Equations 1-3. Two key parameters that comprise the dose equation are the unbound clearance of a compound and the plasma efficacious exposure (also referred to herein as compound potency). Together these parameters are known to one skilled in the art as a measurement of Compound Quality and suitability for advancement into clinical development. Thus, when evaluating AAT modulator compounds, one needs to consider both the potency and unbound clearance parameters (i.e., Compound Quality). The relationship between these two parameters can be challenging to predict.
# The values provided in the table below are calculated by multiplying the EC50 of each of the compounds by the result from the clearance assay procedures described in Section C above and rounded to two significant figures. In the table below, the following meanings apply for Compound Quality (i.e., compound potency x unbound clearance) values: “++++” means ≤0.2; “+++” means >0.20 and ≤0.30; “++” means >0.30 and ≤0.40; “+” means >0.40 and ≤0.50.
SMILES,Compound Quality [2],EM Score [1],further results
"CC[C@@](O)(COC)c1c(-c2ccc(C(=O)O)cc2)c2c(F)c3[nH]ncc3cc2n1-c1ccc(F)cc1 [Compound 1, (S)-4-(8-Fluoro-5-(4-fluorophenyl)-6-(2-hydroxy-1-methoxybutan-2-yl)-1,5-dihydropyrrolo[2,3-f]indazol-7-yl)benzoic acid]",++++ (“++++” means ≤0.2),+++++ (“+++++” means >50),Exposure Multiple ([1]; Bid dose 50 (daily 100)): 10; Exposure Multiple ([1]; Bid dose 200 (daily 400)): 82; Exposure Multiple ([1]; Bid dose 500 (daily 1000)): 126
"CC[C@@](O)(COC)c1c(-c2ccc(C(=O)O)cc2)c2c(F)c3[nH]ncc3cc2n1-c1ccc(F)c(C)c1 [Compound 2, (S)-4-(8-fluoro-5-(4-fluoro-3-methylphenyl)-6-(2-hydroxy-1-methoxybutan-2-yl)-1,5-dihydropyrrolo[2,3-f]indazol-7-yl)benzoic acid]",+++ (“+++” means >0.20 and ≤0.30),++++ (“++++” means 30-50),Exposure Multiple ([1]; Bid dose 50 (daily 100)): 2; Exposure Multiple ([1]; Bid dose 200 (daily 400)): 10; Exposure Multiple ([1]; Bid dose 500 (daily 1000)): 40
"CC[C@@](O)(COC)c1c(-c2ccc(C(=O)O)cc2)c2c(F)c3[nH]ncc3cc2n1-c1ccc(F)c(OC)c1 [Compound 3, (S)-4-(8-fluoro-5-(4-fluoro-3-methoxyphenyl)-6-(2-hydroxy-1-methoxybutan-2-yl)-1,5-dihydropyrrolo[2,3-f]indazol-7-yl)benzoic acid]",+++ (“+++” means >0.20 and ≤0.30),+++++ (“+++++” means >50),Exposure Multiple ([1]; Bid dose 50 (daily 100)): 2; Exposure Multiple ([1]; Bid dose 200 (daily 400)): 17; Exposure Multiple ([1]; Bid dose 500 (daily 1000)): 60
CC[C@@](O)(COC)c1c(-c2ccc(C(=O)O)cc2)c2c(F)c3[nH]ncc3cc2n1-c1ccc(F)c(Cl)c1 [Compound 4],+++ (“+++” means >0.20 and ≤0.30),++++ (“++++” means 30-50),Exposure Multiple ([1]; Bid dose 50 (daily 100)): 8; Exposure Multiple ([1]; Bid dose 200 (daily 400)): 21; Exposure Multiple ([1]; Bid dose 400 (daily 800)): 32
"CC[C@@](O)(COC)c1c(-c2ccc(C(=O)O)cc2)c2c(F)c3[nH]ncc3cc2n1-c1ccc(F)c(F)c1 [Compound 5, (S)-4-(5-(3,4-Difluorophenyl)-8-fluoro-6-(2-hydroxy-1-methoxybutan-2-yl)-1,5-dihydropyrrolo[2,3-f]indazol-7-yl)benzoic acid]",++++ (“++++” means ≤0.2),+++++ (“+++++” means >50),Exposure Multiple ([1]; Bid dose 50 (daily 100)): 39; Exposure Multiple ([1]; Bid dose 150 (daily 300)): 114; Exposure Multiple ([1]; Bid dose 300 (daily 600)): 173
[2H]C([2H])([2H])Oc1cc(-n2c(C3(O)CCCC[C@@H]3OC)c(-c3ccc(C(=O)O)cc3)c3c(F)c4[nH]ncc4cc32)ccc1F (some centres unmarked) [Compound 51],++ (“++” means >0.30 and ≤0.40),–,–
[2H]C([2H])([2H])OCC(O)(CC)c1c(-c2ccc(C(=O)O)cc2)c2c(F)c3[nH]ncc3cc2n1-c1ccc(F)cc1 (centres unmarked) [Compound 52],++ (“++” means >0.30 and ≤0.40),–,–
[2H]C([2H])([2H])OCC(O)(CC)c1c(-c2ccc(C(=O)O)cc2)c2c(F)c3[nH]ncc3cc2n1-c1ccc(F)c(OC)c1 (centres unmarked) [Compound 53],++ (“++” means >0.30 and ≤0.40),–,–
[2H]C([2H])([2H])Oc1cc(-n2c(C3(O)CCCC[C@@H]3OC)c(-c3ccc(C(=O)O)c(C)c3)c3c(F)c4[nH]ncc4cc32)ccc1F (some centres unmarked) [Compound 54],++++ (“++++” means ≤0.2),–,–
COc1cc(-n2c(C3(O)CCCC[C@@H]3OC)c(-c3ccc(C(=O)O)c(C)c3)c3c(F)c4[nH]ncc4cc32)ccc1F (some centres unmarked) [Compound 55],++ (“++” means >0.30 and ≤0.40),–,–
CO[C@H]1CCCCC1(O)c1c(-c2ccc(C(=O)O)c(C)c2)c2c(F)c3[nH]ncc3cc2n1-c1ccc(F)cc1 (some centres unmarked) [Compound 56],+++ (“+++” means >0.20 and ≤0.30),–,–
[2H]C([2H])([2H])OC[C@@](O)(c1c(-c2ccc(C(=O)O)cc2)c2c(F)c3[nH]ncc3cc2n1-c1ccc(F)c(C)c1)C([2H])([2H])C([2H])([2H])[2H] [Compound 57],+ (“+” means >0.40 and ≤0.50),–,–
CCOC1CCCC1(O)c1c(-c2ccc(C(=O)O)cc2)c2c(F)c3[nH]ncc3cc2n1-c1ccc(F)c(OC)c1 (centres unmarked) [Compound 58],+ (“+” means >0.40 and ≤0.50),–,–
CC[C@](O)(COC)c1c(-c2ccc(C(=O)O)cc2)c2cc3[nH]ncc3cc2n1-c1ccc(F)c(Cl)c1 [reference compound],–,+ (“+” means 1-10),Exposure Multiple ([1]; Bid dose 100 (daily 200)): 2; Exposure Multiple ([1]; Bid dose 250 (daily 500)): 1; Exposure Multiple ([1]; Bid dose 500 (daily 1000)): 2
CCC(O)(COC)c1c(-c2ccc(C(=O)O)cc2)c2cc3[nH]ncc3cc2n1-c1ccc(F)cc1 (centres unmarked) [reference compound],–,++ (“++” means 10-20),Exposure Multiple ([1]; Bid dose 250 (daily 500)): 14
O=C(O)c1ccc(-c2c(C3CCOCC3)n(-c3ccc(F)c(F)c3)c3cc4cn[nH]c4cc23)cc1 [reference compound],–,− (“−” means <1),Exposure Multiple ([1]; Bid dose 300 (daily 600)): 0.4
COCC(C)(C)c1c(-c2ccc(C(=O)O)cc2)c2cc3[nH]ncc3cc2n1-c1ccc(F)cc1 [reference compound],–,++ (“++” means 10-20),Exposure Multiple ([1]; Bid dose 25 (daily 50)): 5; Exposure Multiple ([1]; Bid dose 50 (daily 100)): 13; Exposure Multiple ([1]; Bid dose 100 (daily 200)): 18
CC(C)(CC#N)c1c(-c2ccc(C(=O)O)cc2)c2cc3[nH]ncc3cc2n1-c1ccc(F)cc1 [reference compound],–,+ (“+” means 1-10),Exposure Multiple ([1]; Bid dose 287.5 (daily 575)): 1.8

# Continued, in another order:
Compound Quality [2],SMILES,EM Score [1],further results
++ (“++” means >0.30 and ≤0.40),COC1COCCC1(O)c1c(-c2ccc(C(=O)O)cc2)c2c(F)c3[nH]ncc3cc2n1-c1ccc(F)c(C)c1 (centres unmarked) [Compound 59],–,–
+++ (“+++” means >0.20 and ≤0.30),CO[C@H]1CCCCC1(O)c1c(-c2ccc(C(=O)O)cc2)c2c(F)c3[nH]ncc3cc2n1-c1ccc(F)c(F)c1F (some centres unmarked) [Compound 60],–,–
+++ (“+++” means >0.20 and ≤0.30),CO[C@H]1CCCCC1(O)c1c(-c2ccc(C(=O)O)cc2)c2c(F)c3[nH]ncc3cc2n1-c1cc(F)c(F)cc1F (some centres unmarked) [Compound 61],–,–
+ (“+” means >0.40 and ≤0.50),CCC(O)(COC)c1c(-c2ccc(C(=O)O)cc2F)c2c(F)c3[nH]ncc3cc2n1-c1ccc(F)c(F)c1 (centres unmarked) [Compound 62],–,–
+ (“+” means >0.40 and ≤0.50),CCC(O)(COC)c1c(-c2ccc(C(=O)O)cc2F)c2c(F)c3[nH]ncc3cc2n1-c1ccc(F)c(C)c1 (centres unmarked) [Compound 63],–,–
++ (“++” means >0.30 and ≤0.40),CCOCC(O)(CC)c1c(-c2ccc(C(=O)O)cc2)c2c(F)c3[nH]ncc3cc2n1-c1cccc2cnn(C)c12 (centres unmarked) [Compound 64],–,–
+ (“+” means >0.40 and ≤0.50),[2H]C([2H])([2H])Oc1cc(-n2c(C(O)(CC)COC)c(-c3ccc(C(=O)O)c(CC)c3)c3c(F)c4[nH]ncc4cc32)ccc1F (centres unmarked) [Compound 65],–,–
++ (“++” means >0.30 and ≤0.40),COc1cc(-n2c(C3(O)CCCCC3F)c(-c3ccc(C(=O)O)cc3)c3c(F)c4[nH]ncc4cc32)ccc1F (centres unmarked) [Compound 66],–,–
++ (“++” means >0.30 and ≤0.40),CO[C@H]1CCCCC1(O)c1c(-c2ccc(C(=O)O)c(F)c2)c2c(F)c3[nH]ncc3cc2n1-c1ccc(F)cc1 (some centres unmarked) [Compound 67],–,–
